Results as given in US20230365546A1, “5-SUBSTITUTED INDOLE 3-AMIDE DERIVATIVES, PREPARATION METHOD AND USE THEREOF” (ORIGIANT PHARMACEUTICAL CO., LTD, priority 2020, published 2023).

Legend:
RIPK1 = RIPK1 (Homo sapiens (Human), UniProt Q13546); assay: In vitro kinase assay (Eurofins Kinase Profiler), IC50; type: biochemical; conditions: 0.001-10 μM, read-out: RIPK 1 (IC50)
Description: In vitro kinase assays were conducted using Kinase Profiler services provided by Eurofins. The experimental method was as follows: the small molecule compound to be tested (0.001-10 μM), the protein kinase to be tested were incubated with a buffer containing substrate, 10 mM magnesium acetate, and [γ-^33P-ATP], the reaction was started by adding Mg\TPmix, after incubation for a period of time at room temperature, a 3% phosphate solution was added to the buffer to stop the reaction. Subsequently, 10 μL of the reaction mixture was quantitatively pipetted onto P30 filter paper, which was washed three times with 75 mM phosphate solution and then once with methanol. The P30 filter paper was air-dried and scintillation fluid was added for scintillation counting.

HT-29 cells = assay: Protection against programmed necrosis of HT-29 cells (TNF α/Smac mimetic/Z-VAD-FMK, CCK8); type: cell-based; conditions: Homo sapiens, TNF α/Smac mimetic/Z-VAD-FMK induced 24 h, CCK8, read-out: HT-29 (EC50)
Description: In vitro protection against programmed necrosis of HT-29 cells was conducted by ourselves.
DMEM medium was purchased from Gibco Inc., penicillin and streptomycin were purchased from HyClone Inc., TNF α was purchased from PeproTech Inc., Smac mimetic and Z-VAD-FMK were purchased from Selleck Inc., CCK8 was purchased from Medchem Express Inc.
HT-29 cells (colon cancer cells) were cultured in DMEM+10% FBS+Penicillin/Streptomycin medium. During the experiments, HT-29 cells in logarithmic growth phase were harvested, seeded in a 96-well plate at specific numbers per well (typically 8×10^3 cells/well of adherent cells) and cultured overnight in a 37° C., 5% CO2 cell culture incubator. The next day, the compounds to be tested were diluted with culture medium to the corresponding concentrations and added into the corresponding wells of a 96-well plate, with 3 replicate wells for each sample, and a Vehicle control group and a blank Control group containing only culture medium were set at the same time. […] The absorbance was measured at 495 nm wavelength using a microplate reader, and the protection rate of the drug on the cells necrosis was calculated according to the following formula:
Protection rate of cell necrosis=[(X−C0)/(C−C0)]×100%
Wherein, C, C0, and X represent the mean absorbance values of the Vehicle control group, Blank control group and Drug treatment group, respectively.

Sequence of RIPK1 (Q13546 whole entry): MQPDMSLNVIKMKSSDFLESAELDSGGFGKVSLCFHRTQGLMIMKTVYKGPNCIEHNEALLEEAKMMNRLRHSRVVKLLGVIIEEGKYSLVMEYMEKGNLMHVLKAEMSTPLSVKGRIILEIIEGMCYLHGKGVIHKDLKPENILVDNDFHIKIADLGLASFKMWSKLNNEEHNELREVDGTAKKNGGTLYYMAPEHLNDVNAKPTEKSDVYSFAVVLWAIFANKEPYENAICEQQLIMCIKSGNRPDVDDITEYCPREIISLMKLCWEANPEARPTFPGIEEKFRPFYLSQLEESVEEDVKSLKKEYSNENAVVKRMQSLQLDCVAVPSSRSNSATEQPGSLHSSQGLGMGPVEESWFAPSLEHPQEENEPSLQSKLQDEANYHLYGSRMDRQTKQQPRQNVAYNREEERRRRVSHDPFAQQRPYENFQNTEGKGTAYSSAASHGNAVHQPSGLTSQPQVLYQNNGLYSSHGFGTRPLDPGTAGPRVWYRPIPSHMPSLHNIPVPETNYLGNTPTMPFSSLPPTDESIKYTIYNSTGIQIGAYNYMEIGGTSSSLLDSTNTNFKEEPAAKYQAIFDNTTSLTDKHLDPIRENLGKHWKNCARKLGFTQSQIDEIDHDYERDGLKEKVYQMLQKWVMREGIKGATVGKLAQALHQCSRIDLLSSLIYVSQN

SMILES | IC50 (RIPK1) | EC50 (HT-29 cells)
Cn1cc(C(=O)NCc2ccc(F)cc2)c2cc(-c3ccc4nc(NC(=O)C5CC5)sc4c3)ccc21 [Compound 79] | 0.1 to 1 µM | 0.01 to 0.1 µM
O=C(NCc1ccc(F)cc1F)c1c[nH]c2ncc(-c3ccc4nc(NC(=O)C5CC5)sc4c3)cc12 [Compound 80] | 0.1 to 1 µM | 0.01 to 0.1 µM
C[C@H](NC(=O)c1c[nH]c2ccc(-c3ccc4nc(NC(=O)C5CC5)[nH]c4c3)cc12)c1cccc(F)c1 [Compound 81] | 0.01 to 0.1 µM | 0.1 to 1 µM
C[C@H](NC(=O)c1c[nH]c2ccc(-c3ccn4nc(NC(=O)C5CC5)nc4c3)cc12)c1cccc(F)c1 [Compound 82] | 0.01 to 0.1 µM | 0.1 to 1 µM
C[C@H](NC(=O)c1c[nH]c2ccc(-c3ccc4c(N)ncnn34)cc12)c1cccc(F)c1 [Compound 83] | 0.1 to 1 µM | 0.1 to 1 µM
Cc1noc(C)c1CNC(=O)c1c[nH]c2ccc(-c3ccc4nc(NC(=O)C5CC5)sc4c3)cc12 [Compound 84] | 0.1 to 1 µM | 0.1 to 1 µM
O=C(NCc1ccn[nH]1)c1c[nH]c2ccc(-c3ccc4nc(NC(=O)C5CC5)sc4c3)cc12 [Compound 85] | ≥ 1 µM | ≥ 1 µM
Cn1cc(CNC(=O)c2c[nH]c3ccc(-c4ccc5nc(NC(=O)C6CC6)sc5c4)cc23)cn1 [Compound 86] | ≥ 1 µM | ≥ 1 µM
O=C(NCc1ccc2[nH]ccc2c1)c1c[nH]c2ccc(-c3ccc4nc(NC(=O)C5CC5)sc4c3)cc12 [Compound 87] | ≥ 1 µM | ≥ 1 µM
C[C@H](NC(=O)c1c[nH]c2ccc(-c3ccc4nc(NC(=O)C5CC5)sc4n3)cc12)c1cccc(F)c1 [Compound 88] | 0.01 to 0.1 µM | 0.001 to 0.01 µM
C[C@H](NC(=O)c1cn(C)c2ccc(-c3ccc4nc(NC(=O)C5CC5)sc4n3)cc12)c1cccc(F)c1 [Compound 89] | 0.01 to 0.1 µM | 0.001 to 0.01 µM
COCC(=O)Nc1nc2ccc(-c3ccc4c(c3)c(C(=O)N[C@@H](C)c3cccc(F)c3)cn4C)nc2s1 [Compound 91] | 0.1 to 1 µM | 0.1 to 1 µM
COCC(=O)Nc1nc2ccc(-c3ccc4[nH]cc(C(=O)N[C@@H](C)c5cccc(F)c5)c4c3)cn2n1 [Compound 92] | 0.1 to 1 µM | 0.1 to 1 µM
O=C(NCc1ccc(N2CCOCC2)cc1)c1c[nH]c2ccc(-c3ccc4nc(NC(=O)C5CC5)sc4c3)cc12 [Compound 93] | ≥ 1 µM | ≥ 1 µM
COCC(=O)Nc1nc2ccc(-c3ccc4[nH]cc(C(=O)NCc5cccc(F)c5)c4c3)cn2n1 [Compound 95] | 0.1 to 1 µM | 0.1 to 1 µM
COCC(=O)Nc1nc2ccc(-c3ccc4c(c3)c(C(=O)N[C@@H](C)c3cccc(F)c3)cn4C)cn2n1 [Compound 96] | 0.01 to 0.1 µM | 0.01 to 0.1 µM
O=C(NCc1ccc(N2CCOCC2)cc1)c1c[nH]c2ccc(-c3ccn4nc(NC(=O)C5CC5)nc4c3)cc12 [Compound 97] | ≥ 1 µM | ≥ 1 µM
Cn1cc(C(=O)NCc2ccc(N3CCOCC3)cc2)c2cc(-c3ccn4nc(NC(=O)C5CC5)nc4c3)ccc21 [Compound 98] | ≥ 1 µM | ≥ 1 µM
O=C(NCc1ccc(N2CCOCC2)cc1)c1c[nH]c2ccc(-c3ccc4nc(NC(=O)C5CC5)sc4n3)cc12 [Compound 99] | ≥ 1 µM | ≥ 1 µM
Cn1cc(C(=O)NCc2ccc(N3CCOCC3)cc2)c2cc(-c3ccc4nc(NC(=O)C5CC5)sc4n3)ccc21 [Compound 100] | ≥ 1 µM | ≥ 1 µM
Cc1ccc(CCNC(=O)c2n[nH]c3ccc(-c4ccc5c(N)ncnn45)cc23)cc1 [Compound 101] | 0.01 to 0.1 µM | 0.1 to 1 µM
Nc1ncnn2c(-c3ccc4[nH]nc(C(=O)NCCc5cccc(F)c5)c4c3)ccc12 [Compound 102] | 0.1 to 1 µM | 0.1 to 1 µM
CCn1cc(C(=O)N[C@@H](C)c2cccc(F)c2)c2cc(-c3ccc4c(NC(=O)C5CC5)n[nH]c4c3)ccc21 [Compound 111] | 0.001 to 0.01 µM | < 0.001 µM
CC(C)n1cc(C(=O)N[C@@H](C)c2cccc(F)c2)c2cc(-c3ccc4c(NC(=O)C5CC5)n[nH]c4c3)ccc21 [Compound 112] | 0.01 to 0.1 µM | 0.001 to 0.01 µM
CCCn1cc(C(=O)N[C@@H](C)c2cccc(F)c2)c2cc(-c3ccc4c(NC(=O)C5CC5)n[nH]c4c3)ccc21 [Compound 113] | 0.001 to 0.01 µM | 0.001 to 0.01 µM
CC(C)Cn1cc(C(=O)N[C@@H](C)c2cccc(F)c2)c2cc(-c3ccc4c(NC(=O)C5CC5)n[nH]c4c3)ccc21 [Compound 115] | 0.001 to 0.01 µM | 0.01 to 0.1 µM
COCCn1cc(C(=O)N[C@@H](C)c2cccc(F)c2)c2cc(-c3ccc4c(NC(=O)C5CC5)n[nH]c4c3)ccc21 [Compound 116] | 0.001 to 0.01 µM | 0.01 to 0.1 µM

Further lines, with some results ahead:

IC50 (RIPK1) | SMILES | EC50 (HT-29 cells)
0.01 to 0.1 µM | Nc1ncnn2c(-c3ccc4[nH]nc(C(=O)NCCc5ccc(F)cc5)c4c3)ccc12 [Compound 103] | 0.1 to 1 µM
0.001 to 0.01 µM | C[C@H](NC(=O)c1cn(C)c2ccc(-c3ccc4c(NC(=O)C5CC5)n[nH]c4c3)cc12)c1cccc(F)c1 [Compound 104] | < 0.001 µM
0.01 to 0.1 µM | CC(C)C(=O)Nc1nc2cc(-c3ccc4c(c3)c(C(=O)NC(C)c3ccccc3)cn4C)ccn2n1 (stereo not shown) [Compound 105] | 0.001 to 0.01 µM
0.001 to 0.01 µM | CC(C)C(=O)Nc1nc2cc(-c3ccc4c(c3)c(C(=O)N[C@@H](C)c3cccc(F)c3)cn4C)ccn2n1 [Compound 106] | < 0.001 µM
0.01 to 0.1 µM | CC(C)C(=O)Nc1nc2ccc(-c3ccc4c(c3)c(C(=O)N[C@@H](C)c3cccc(F)c3)cn4C)cn2n1 [Compound 107] | 0.001 to 0.01 µM
0.001 to 0.01 µM | C[C@H](NC(=O)c1cn(C)c2ccc(-c3ccn4nc(NC(=O)C5CC5)cc4n3)cc12)c1cccc(F)c1 [Compound 108] | 0.001 to 0.01 µM
0.001 to 0.01 µM | C[C@H](NC(=O)c1cn(C)c2ccc(-c3ccc4nc(NC(=O)C5CC5)cn4n3)cc12)c1cccc(F)c1 [Compound 109] | < 0.001 µM
0.01 to 0.1 µM | C[C@H](NC(=O)c1cn(C)c2ccc(-c3ccc4c(NC(=O)C5CC5)c[nH]c4c3)cc12)c1cccc(F)c1 [Compound 117] | 0.01 to 0.1 µM
0.01 to 0.1 µM | C[C@H](NC(=O)c1cn(C)c2ccc(-c3ccc4c(C(=O)NC5CC5)c[nH]c4c3)cc12)c1cccc(F)c1 [Compound 118] | 0.001 to 0.01 µM
0.001 to 0.01 µM | C[C@H](NC(=O)c1cn(C)c2ccc(-c3ccc4c(C(=O)NCC(C)(C)C)c[nH]c4c3)cc12)c1cccc(F)c1 [Compound 119] | 0.001 to 0.01 µM
0.001 to 0.01 µM | Cc1ccc([C@H](C)NC(=O)c2cn(C)c3ccc(-c4ccn5nc(NC(=O)C6CC6)nc5c4)cc23)cc1 [Compound 120] | < 0.001 µM
0.01 to 0.1 µM | CC(C)C(=O)Nc1nc2cc(-c3ccc4c(c3)c(C(=O)N[C@H](C)c3ccccc3)cn4C)ccn2n1 [Compound 121] | 0.001 to 0.01 µM
0.001 to 0.01 µM | CC(C)C(=O)Nc1nc2cc(-c3ccc4c(c3)c(C(=O)N[C@@H](C)c3ccccc3)cn4C)ccn2n1 [Compound 122] | < 0.001 µM
0.01 to 0.1 µM | CC(C)C(=O)Nc1nc2cc(-c3ccc4c(c3)c(C(=O)NC(C)(C)c3ccccc3)cn4C)ccn2n1 [Compound 123] | 0.001 to 0.01 µM
0.01 to 0.1 µM | CC(C)C(=O)Nc1nc2cc(-c3ccc4c(c3)c(C(=O)NC(C)c3cccc(F)c3)cn4C)ccn2n1 (stereo not shown) [Compound 124] | 0.001 to 0.01 µM
≥ 1 µM | CC(C)C(=O)Nc1nc2cc(-c3ccc4c(c3)c(C(=O)N[C@H](C)c3cccc(F)c3)cn4C)ccn2n1 [Compound 125] | ≥ 1 µM
0.01 to 0.1 µM | CC(C)C(=O)Nc1nc2cc(-c3ccc4c(c3)c(C(=O)N[C@H](C)c3cccc(Cl)c3)cn4C)ccn2n1 [Compound 126] | 0.01 to 0.1 µM
0.01 to 0.1 µM | CC(C)C(=O)Nc1nc2cc(-c3ccc4c(c3)c(C(=O)N[C@@H](C)c3cccc(Cl)c3)cn4C)ccn2n1 [Compound 127] | < 0.001 µM
0.1 to 1 µM | COc1cccc([C@@H](C)NC(=O)c2cn(C)c3ccc(-c4ccn5nc(NC(=O)C(C)C)nc5c4)cc23)c1 [Compound 128] | 0.1 to 1 µM
0.01 to 0.1 µM | COc1cccc([C@H](C)NC(=O)c2cn(C)c3ccc(-c4ccn5nc(NC(=O)C(C)C)nc5c4)cc23)c1 [Compound 129] | 0.001 to 0.01 µM
0.01 to 0.1 µM | CC(C)C(=O)Nc1nc2cc(-c3ccc4c(c3)c(C(=O)NC(C)c3ccc(F)cc3)cn4C)ccn2n1 (stereo not shown) [Compound 130] | 0.001 to 0.01 µM
0.01 to 0.1 µM | CC(C)C(=O)Nc1nc2cc(-c3ccc4c(c3)c(C(=O)N[C@@H](C)c3ccc(F)cc3)cn4C)ccn2n1 [Compound 131] | < 0.001 µM
0.1 to 1 µM | CC(C)C(=O)Nc1nc2cc(-c3ccc4c(c3)c(C(=O)N[C@H](C)c3ccc(F)cc3)cn4C)ccn2n1 [Compound 132] | 0.1 to 1 µM
0.01 to 0.1 µM | COc1ccc([C@H](C)NC(=O)c2cn(C)c3ccc(-c4ccn5nc(NC(=O)C(C)C)nc5c4)cc23)cc1 [Compound 133] | < 0.001 µM
≥ 1 µM | COc1ccc([C@@H](C)NC(=O)c2cn(C)c3ccc(-c4ccn5nc(NC(=O)C(C)C)nc5c4)cc23)cc1 [Compound 134] | 0.1 to 1 µM
0.01 to 0.1 µM | CC(C)C(=O)Nc1nc2cc(-c3ccc4c(c3)c(C(=O)NC(C)c3ccccn3)cn4C)ccn2n1 (stereo not shown) [Compound 135] | 0.001 to 0.01 µM
